# Results: US9066516B2, “Uses of thaxtomin and thaxtomin compositions as herbicides” (priority 2008, dated 2015)
# Like-named read-outs stand apart in the source and are kept apart here.
# Tests used:
# Type in all cases: in vivo
# crabgrass [1] = experiment: Crabgrass seed germination, MBI-005 + m-Tyrosine (Example 15); conditions: 7 DAT; for AVG No. germinated: forty-five seeds
# Method: Forty-five seeds were placed on a ring of blotter paper inside a 3 cm petri dish, covered with 10 cm^3 of inert baked clay particle media and supplied with 7 ml of 0.035 mg/ml MBI-005, a m-Tyrosine concentration, or a combination of MBI-005 and m-Tyrosine (Table 14). Water was used as a negative control. Petri dishes were randomly placed in a growth room at 25° C. and 50% RH. Treatments were replicated three times and germinated seeds were counted 7 days after application; water was added as necessary to maintain moisture levels inside each petri dish.
# Synergy was calculated as the ratio of observed (E) to expected (E/Ee) reduction in germination using Colby's formula.
# sedge = experiment: Greenhouse synergy test MBI-005 + commercial herbicides (Example 11); conditions: 14 days
# Method: (§1) The test species barnyard grass, ragweed, sedge, and broad-leaf mustard were used for the valuation of synergy between MBI-005 and the rice herbicides clomazone, penoxsulam, cyhalofop, fenoxaprop-p-ethyl, bispyribac-sodium, thiobencarb, and propanil.
# (§2) There were 3 replicates per treatment which were sprayed with approximately ⅔ ml per replicate. The treatments were completely randomized and kept in a greenhouse at 25° C. The efficacy was rated at 7 and 14 days post treatment.
# broad-leaf mustard = experiment: as above; conditions: 14 days
# Method: as §1, §2
# barnyard grass [2] = experiment: as above; conditions: 14 days
# Method: as §1, §2
# [3] = tested on: small flower umbrella sedge; experiment: Post-emergent MBI-005 + rice herbicides on smallflower umbrella sedge (Example 19); conditions: 14 days
# Method: (§3) Twenty seedlings in 2.5 cm square pots containing plant growth mix were sprayed to full coverage using a hand sprayer. Negative controls were sprayed with water. Pots were randomly placed in a growth room at 25° C. and 50% RH, and watered as necessary. Treatments were replicated three times and evaluated at 7 and 14 days for visual % damage, with 0% indicating no damage and 100% indicating plant death.
# (§4) Synergy was calculated as the ratio of observed (E) to expected (E/Ee) percent control using Colby's formula.
# barnyard grass [4] = experiment: Post-emergent MBI-005 + rice herbicides on barnyard grass (Example 18); conditions: Clomazone 13.3 % v/v of label rate; 14 days
# Method: as §3, with “Ten” for “Twenty”
# Synergistic effect were noted between MBI-005 and all three rice herbicides, 14 days after treatment. Synergy was calculated as the ratio of observed (E) to expected (E/Ee) percent control using Colby's formula.
# dandelion = experiment: Greenhouse synergy test MBI-005 + turf herbicides (Example 11); conditions: 14 days
# Method: (§5) The common turf weeds dandelion and plantain were used in testing for synergy between MBI-005 and 2, 4- or dicamba, two common turf herbicides.
# as §2
# plantain = experiment: as above; conditions: 14 days
# Method: as §5, §2
# [5] = tested on: Smallflower umbrella sedge; experiment: Post-emergent MBI-005 + Thiobencarb on Smallflower umbrella sedge (Example 21); conditions: post-emergence, 336 h, 14 days, read-out: Observed Average % Efficacy (E)
# Method: […] Negative controls were sprayed with water. Pots were randomly placed in a growth room at 25° C. and 50% RH, and watered as necessary. Treatments were replicated three times and evaluated at 7 and 14 days for visual % damage, with 0% indicating no damage and 100% indicating plant death.
# as §4
# crabgrass [6] = experiment: Greenhouse synergy test MBI-005 + field crop herbicides (Example 11); conditions: glufosinate 0.151 mg/mL, 14 days
# Method: (§6) […] other herbicides commonly used for field crops, glyphosate, glufosinate, synthetic version of bialaphos, and mesotrione were also tested for synergy with MBI-005 on crabgrass and ragweed.
# as §2
# ragweed = experiment: Greenhouse synergy test MBI-005 + commercial herbicides (Example 11); conditions: glufosinate 0.194 mg/mL, 14 days
# Method: as §1, §6, §2
# barnyard grass [7] = experiment: Greenhouse spray test bialaphos + MBI-005 (Example 10)
# Method: The MBI-005 and bialaphos were prepared at various concentrations either as single ingredients or in combination with bialaphos. The treatments were applied at approximately ⅔ ml per replicate with a hand-help spray nozzle to barnyard grass or sedge. There were 3 replicates per treatment which were randomized after spray and were kept in a greenhouse at 25° C. for evaluation of phytotoxicity (% control).
smiles,measurement,setting,value
"N[C@@H](Cc1cccc(O)c1)C(=O)O [M-tyrosine, m-Tyrosine]",E (% controlled compared to UTC),crabgrass [1]; .22 mg/mL M-tyrosine,8.3%
same,AVG No. germinated,crabgrass [1]; .22 mg/mL M-tyrosine,40.7
same,E (% controlled compared to UTC),crabgrass [1]; .44 mg/mL M-tyrosine,0.8%
same,AVG No. germinated,crabgrass [1]; .44 mg/mL M-tyrosine,44.0
CC1(C)CON(Cc2ccccc2Cl)C1=O [clomazone],% Control Product,sedge; clomazone 0.501 mg/mL,0.0%
same,% Control Product,broad-leaf mustard; clomazone 0.513 mg/mL,25.0%
same,% Control Product,barnyard grass [2]; clomazone 0.513 mg/mL,37.5%
same,% control AI,[3]; Clomazone 13% v/v of label rate,0.0%
same,% control chemical AI,barnyard grass [4],37.50%
"O=C(O)COc1ccc(Cl)cc1Cl [2,4-D, reference compound]",% Control Product,"dandelion; 2, 4-D 0.176 mg/mL",25.0%
same,% Control Product,"plantain; 2, 4-D 2.340 mg/mL",50.0%
CCOC(=O)[C@@H](C)Oc1ccc(Oc2nc3ccc(Cl)cc3o2)cc1 [fenoxaprop-p-ethyl],% Control Product,sedge; fenoxaprop-p-ethyl 0.116 mg/mL,0.0%
same,% Control Product,broad-leaf mustard; fenoxaprop-p-ethyl 0.006 mg/mL,0.0%
same,% Control Product,barnyard grass [2]; fenoxaprop-p-ethyl 0.006 mg/mL,91.7%
"COc1c(Cl)ccc(Cl)c1C(=O)O [dicamba, reference compound]",% Control Product,dandelion; dicamba 0.121 mg/mL,45.8%
same,% Control Product,plantain; dicamba 6.025 mg/mL,50.0%
CCN(CC)C(=O)SCc1ccc(Cl)cc1 [thiobencarb],% Control Product,sedge; thiobencarb 3.15 mg/mL,58.3%
same,% Control Product,broad-leaf mustard; thiobencarb 1.743 mg/mL,10.0%
same,% Control Product,barnyard grass [2]; thiobencarb 1.743 mg/mL,41.7%
same,Observed average % efficacy,"[5]; first series, 25% Thiobencarb",41.7%
same,Observed average % efficacy,"[5]; second series, 15% Thiobencarb",25%
same,% control AI,[3]; Thiobencarb 25% v/v of label rate,41.7%
CP(=O)(O)CCC(N)C(=O)O (centres unmarked) [glufosinate],% Control Product,crabgrass [6],83.3%
same,% Control Product,ragweed,22.5%
C[C@H](NC(=O)[C@H](C)NC(=O)[C@@H](N)CCP(C)(=O)O)C(=O)O [Bialaphos],% Control (14 days),"barnyard grass [7]; Table 6, Bialaphos 0.089 mg/mL",0.0 a %
same,% Control (14 days),"barnyard grass [7]; Table 6, Bialaphos 0.178 mg/mL",0.0 a %
same,% Control (14 days),"barnyard grass [7]; Table 6, Bialaphos 0.356 mg/mL",0.0 a %
same,% Control (14 days),"barnyard grass [7]; Table 6, Bialaphos 0.534 mg/mL",0.0 a %
same,% Control (14 days),"barnyard grass [7]; Table 6, Bialaphos 0.712 mg/mL",0.0 a %
same,% Control (14 days),"barnyard grass [7]; Table 6, Bialaphos 0.890 mg/mL",1.3 ab %
same,% Control (14 days),"barnyard grass [7]; Table 6, Bialaphos 1.068 mg/mL",5.0 abc %
same,% Control (14 days),"barnyard grass [7]; Table 7, Bialaphos 0.18 mg/mL",6.7 bc %
same,% Control (14 days),"barnyard grass [7]; Table 7, Bialaphos 0.53 mg/mL",3.3 ab %
same,% Control (14 days),"barnyard grass [7]; Table 7, Bialaphos 1.07 mg/mL",10.0 c %
same,% Control (14 days),"barnyard grass [7]; Table 7, Bialaphos 1.07 mg/mL, listed as bialaphos",10%
same,% Control (7 days),"barnyard grass [7]; Table 8, Bialaphos 1.1 mg/mL",5.0 ab %
same,% Control (14 days),"barnyard grass [7]; Table 8, Bialaphos 1.1 mg/mL",3.7 a %
same,% Control (7 days),"barnyard grass [7]; Table 8, Bialaphos 1.4 mg/mL",10.8 b %
same,% Control (14 days),"barnyard grass [7]; Table 8, Bialaphos 1.4 mg/mL",23.3 b %
same,% Control (7 days),"barnyard grass [7]; Table 8, Bialaphos 1.8 mg/mL",62.5 c %
same,% Control (14 days),"barnyard grass [7]; Table 8, Bialaphos 1.8 mg/mL",66.7 c %
